According to US20240150293A1, “SPIROCYCLOHEXANE DERIVATIVES, PHARMACEUTICAL COMPOSITIONS CONTAINING THEM AND THEIR USES AS ANTI-APOPTOTIC INHIBITORS” (LES LABORATOIRES SERVIER, priority 2021, published 2024):
Like-named read-outs stand apart in the source and are kept apart here.

How the values were obtained:
[1] = target: Cy5-labelled Mcl1 (amino acids 171-321) C286S protein (UniProtKB Q07820) (Homo sapiens (Human), UniProt Q07820, C286S); experiment: Inhibition of Mcl-1 by the fluorescence quenching assay (Example A, Method B); type: binding
Summary of the method: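 Cy5-labelled Mcl1 171-321 C286S (1 nM) quenched by TQ5WS-labelled PUMA peptide (10, 20 or 400 nM); displacement raises fluorescence (Ex 620/Em 680 nm). Buffer 10 mM HEPES, 150 mM NaCl, 0.05% Tween 20, pH 7.4, 5% DMSO; 2 h at room temperature, 11-point curves, IC50 converted to Ki (cKi/eKi).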

[2] = system: H929 multiple myeloma tumor line; experiment: In vitro cytotoxicity, MTT assay (Example B, Method A); type: cell-based; settings: H929 cells, 48 hours exposure, read-out: C50
Experimental: The cytotoxicity studies were carried out on the H929 multiple myeloma tumor line.
The cells are distributed onto microplates and exposed to the test compounds for 48 hours. The cell viability is then quantified by a colorimetric assay, the Microculture Tetrazolium Assay (Carmichael et al, Cancer Res. 1987, 47, 939-942).
The results are expressed in C50 which means concentration corresponding to […] of effect/inhibition.

Chain of Cy5-labelled Mcl1 (amino acids 171-321) C286S protein (Q07820 171-321 C286S): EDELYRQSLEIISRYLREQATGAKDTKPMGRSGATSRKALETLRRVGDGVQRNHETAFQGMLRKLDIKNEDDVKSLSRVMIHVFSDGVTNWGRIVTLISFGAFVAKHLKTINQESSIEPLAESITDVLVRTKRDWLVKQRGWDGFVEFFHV

Row | Structure (SMILES) | Ki [1] [nM] | Ki ([1]; Ki determined from IC50) [nM] | IC50 ([2]; Homo sapiens, NCI-H929, 48 h) [nM] | IC50 [2] [nM]
1 | C[C@@H](COc1ncnc2c1CCCC2)CC1=Cc2ccccc2[C@]12CC[C@@](Nc1cccc(Cl)c1)(C(=O)O)CC2 [Example 636, (1r,4R)-4-(3-chloroanilino)-2′-{(2R)-2-methyl-3-[(5,6,7,8-tetrahydroquinazolin-4-yl)oxy]propyl}spiro[cyclohexane-1,1′-indene]-4-carboxylic acid] | 16.2 |  | 3080 | 
2 | O=C(O)[C@]1(Nc2cccc(Cl)c2)CC[C@@]2(CC1)c1ccccc1CC2CC(COc1ccnc2ccsc12)Cc1ccccc1 (single isomer, unassigned) [Example 561, (1r,4r)-2′-{2-benzyl-3-[(thieno[3,2-b]pyridin-7-yl)oxy]propyl}-4-(3-chloroanilino)-2′,3′-dihydrospiro[cyclohexane-1,1′-indene]-4-carboxylic acid] | 57.1 |  |  | 12300
3 | C[C@@H](COc1ccnc2c1C1CCC2CC1)C[C@H]1Cc2ccccc2[C@]12CC[C@@](Nc1cccc(Cl)c1)(C(=O)O)CC2 [Example 648, (1r,2′S,4S)-4-(3-chloroanilino)-2′-{(2R)-2-methyl-3-[(5,6,7,8-tetrahydro-5,8-ethanoquinolin-4-yl)oxy]propyl}-2′,3′-dihydrospiro[cyclohexane-1,1′-indene]-4-carboxylic acid] | 18 |  | 790 | 
4 | C[C@H]1Cc2nccc(OC[C@H](C)C[C@H]3Cc4ccccc4[C@]34CC[C@@](Nc3cccc(Cl)c3)(C(=O)O)CC4)c2[C@@H](C)C1 [Example 664, (1r,2′S,4S)-4-(3-chloroanilino)-2′-[(2R)-3-{[(5S,7R)-5,7-dimethyl-5,6,7,8-tetrahydroquinolin-4-yl]oxy}-2-methylpropyl]-2′,3′-dihydrospiro[cyclohexane-1,1′-indene]-4-carboxylic acid] | 52.5 |  | 3030 | 
5 | C[C@@H](COc1ccnc2c1[C@@H](C)CC[C@@H]2F)C[C@H]1Cc2ccccc2[C@]12CC[C@@](Nc1cccc(Cl)c1)(C(=O)O)CC2 [Example 690, (1r,2′S,4S)-4-(3-chloroanilino)-2′-[(2R)-3-{[(5S,8S)-8-fluoro-5-methyl-5,6,7,8-tetrahydroquinolin-4-yl]oxy}-2-methylpropyl]-2′,3′-dihydrospiro[cyclohexane-1,1′-indene]-4-carboxylic acid] | 29.5 |  | 1410 | 
6 | CC(CC1Cc2ccccc2[C@]12CC[C@@](Nc1cccc(Cl)c1)(C(=O)O)CC2)C1CCC(=O)CC1 (single isomer, unassigned) [Example 572, (1r,4r)-4-(3-chloroanilino)-2′-[2-(4-oxocyclohexyl)propyl]-2′,3′-dihydrospiro[cyclohexane-1,1′-indene]-4-carboxylic acid] | 84.2 |  |  | 30000
7 | O=C(O)[C@]1(Nc2cccc(Cl)c2)CC[C@@]2(CC1)c1ccccc1CN2CCCOc1ccnc2ccsc12 [Example 36, (1s,4s)-4-(3-chloroanilino)-2′-{3-[(thieno[3,2-b]pyridin-7-yl)oxy]propyl}-2′,3′-dihydrospiro[cyclohexane-1,1′-isoindole]-4-carboxylic acid] |  | 749 | 18500 | 
8 | Cc1cn(C[C@H](C)C[C@H]2Cc3ccccc3[C@]23CC[C@@](Nc2cccc(Cl)c2)(C(=O)O)CC3)c2c(c1=O)C(C)CCC2 (single isomer, unassigned) [Example 640] | 980 |  |  | 18100
9 | C[C@@H](COc1ccnc2c1[C@@H](CC(F)(F)F)CCC2)C[C@H]1Cc2ccccc2[C@]12CC[C@@](Nc1cccc(Cl)c1)(C(=O)O)CC2 [Example 694, (1r,2′S,4S)-4-(3-chloroanilino)-2′-[(2R)-2-methyl-3-{[(5R)-5-(2,2,2-trifluoroethyl)-5,6,7,8-tetrahydroquinolin-4-yl]oxy}propyl]-2′,3′-dihydrospiro[cyclohexane-1,1′-indene]-4-carboxylic acid] | 100 |  | 6290 | 

Continued by falling Ki [1], values first:

Row | Ki [1] [nM] | Ki ([1]; Ki determined from IC50) [nM] | Structure (SMILES) | IC50 ([2]; Homo sapiens, NCI-H929, 48 h) [nM] | IC50 [2] [nM]
10 | 12.7 |  | C[C@@H](COc1ccnc2c1[C@H]1CCC[C@H]1C2)C[C@H]1Cc2ccccc2[C@]12CC[C@@](Nc1cccc(Cl)c1)(C(=O)O)CC2 (single isomer, unassigned) [Example 620, (1r,2′S,4S)-4-(3-chloroanilino)-2′-[(2R)-3-{[(4bR*,7aR*)-4b,5,6,7,7a,8-hexahydropentaleno[2,1-b]pyridin-4-yl]oxy}-2-methylpropyl]-2′,3′-dihydrospiro[cyclohexane-1,1′-indene]-4-carboxylic acid] |  | 889
11 | 5.19 |  | C[C@@H](COc1ccnc2ccsc12)C[C@@H]1Cc2ccc(F)cc2[C@]12CC[C@@](Nc1cccc(Cl)c1)(C(=O)O)CC2 [Example 736, (1r,2′R,4R)-4-(3-chloroanilino)-6′-fluoro-2′-{(2R)-2-methyl-3-[(thieno[3,2-b]pyridin-7-yl)oxy]propyl}-2′,3′-dihydrospiro[cyclohexane-1,1′-indene]-4-carboxylic acid] | 1220 | 
12 | 2.44 |  | CO[C@@H]1CCCc2nccc(OC[C@H](C)C[C@H]3Cc4ccccc4[C@]34CC[C@@](Nc3cccc(Cl)c3)(C(=O)O)CC4)c21 [Example 672, (1r,2′S,4S)-4-(3-chloroanilino)-2′-[(2R)-3-{[(5R)-5-methoxy-5,6,7,8-tetrahydroquinolin-4-yl]oxy}-2-methylpropyl]-2′,3′-dihydrospiro[cyclohexane-1,1′-indene]-4-carboxylic acid] | 391 | 
13 | 1.49 |  | C[C@@H](COc1ccnc2c1[C@H](C)CCC2)C[C@H]1Cc2ccccc2[C@]12CC[C@@](Nc1cc(F)cc(Cl)c1)(C(=O)O)CC2 [Example 704, (1r,2′S,4S)-4-(3-chloro-5-fluoroanilino)-2′-[(2R)-2-methyl-3-{[(5R)-5-methyl-5,6,7,8-tetrahydroquinolin-4-yl]oxy}propyl]-2′,3′-dihydrospiro[cyclohexane-1,1′-indene]-4-carboxylic acid] | 240 | 
14 | 1.27 |  | C[C@@H](COc1ccnc2c1[C@H](C)CCC2)C[C@@H]1Cc2ccccc2[C@]12CC[C@@](Nc1ccc(F)c(Cl)c1)(C(=O)O)CC2 [Example 703, (1r,2′R,4R)-4-(3-chloro-4-fluoroanilino)-2′-[(2R)-2-methyl-3-{[(5R)-5-methyl-5,6,7,8-tetrahydroquinolin-4-yl]oxy}propyl]-2′,3′-dihydrospiro[cyclohexane-1,1′-indene]-4-carboxylic acid] | 169 | 
15 | 0.864 |  | CC(=O)c1ccc2c(c1)[C@]1(CC[C@@](Nc3cccc(Cl)c3)(C(=O)O)CC1)C(C[C@@H](C)COc1ccnc3c1[C@H](C)CCC3)=C2 [Example 856, (1r,4R)-6′-acetyl-4-(3-chloroanilino)-2′-[(2R)-2-methyl-3-{[(5R)-5-methyl-5,6,7,8-tetrahydroquinolin-4-yl]oxy}propyl]spiro[cyclohexane-1,1′-indene]-4-carboxylic acid] | 74.8 | 
16 | 0.703 |  | Cc1cc2c(cc1C)[C@]1(CC[C@@](Nc3cccc(Cl)c3)(C(=O)O)CC1)[C@H](C[C@@H](C)COc1ccnc3c1[C@H](C)CCC3)C2 [Example 855, (1r,2′R,4R)-4-(3-chloroanilino)-5′,6′-dimethyl-2′-[(2R)-2-methyl-3-{[(5R)-5-methyl-5,6,7,8-tetrahydroquinolin-4-yl]oxy}propyl]-2′,3′-dihydrospiro[cyclohexane-1,1′-indene]-4-carboxylic acid] | 50.8 | 
17 | 0.446 |  | C[C@@H](COc1ccnc2c1[C@H](C)CCC2)C[C@H]1Cc2ccccc2[C@]12CC[C@@](Nc1cccc(Br)c1)(C(=O)O)CC2 [Example 711, (1r,2′S,4S)-4-(3-bromoanilino)-2′-[(2R)-2-methyl-3-{[(5R)-5-methyl-5,6,7,8-tetrahydroquinolin-4-yl]oxy}propyl]-2′,3′-dihydrospiro[cyclohexane-1,1′-indene]-4-carboxylic acid] | 59.8 | 
18 | 0.418 |  | C[C@@H](COc1ccnc2c1[C@H](C)CC[C@H]2O)C[C@H]1Cc2ccccc2[C@]12CC[C@@](Nc1cccc(Cl)c1)(C(=O)O)CC2 [Example 676, (1r,2′S,4S)-4-(3-chloroanilino)-2′-[(2R)-3-{[(5R,8R)-8-hydroxy-5-methyl-5,6,7,8-tetrahydroquinolin-4-yl]oxy}-2-methylpropyl]-2′,3′-dihydrospiro[cyclohexane-1,1′-indene]-4-carboxylic acid] |  | 65.6
19 | 0.0988 |  | C[C@@H](COc1ccnc2c1[C@H](C)CCC2)C[C@H]1Cc2ccc(C=O)cc2[C@]12CC[C@@](Nc1cccc(Cl)c1)(C(=O)O)CC2 [Example 867, (1r,2′S,4S)-4-(3-chloroanilino)-6′-formyl-2′-[(2R)-2-methyl-3-{[(5R)-5-methyl-5,6,7,8-tetrahydroquinolin-4-yl]oxy}propyl]-2′,3′-dihydrospiro[cyclohexane-1,1′-indene]-4-carboxylic acid] | 73 | 
20 | 0.0699 |  | CC(=O)c1ccc2c(c1)[C@]1(CC[C@@](Nc3cccc(Cl)c3)(C(=O)O)CC1)[C@@H](C[C@@H](C)COc1ccnc3c1[C@H](C)CCC3)C2 [Example 858, (1r,2′S,4S)-6′-acetyl-4-(3-chloroanilino)-2′-[(2R)-2-methyl-3-{[(5R)-5-methyl-5,6,7,8-tetrahydroquinolin-4-yl]oxy}propyl]-2′,3′-dihydrospiro[cyclohexane-1,1′-indene]-4-carboxylic acid] | 50.6 | 
